Source: US20050197350A1, “Novel quinoline, tetrahydroquinazoline, and pyrimidine derivatives and methods of treatment related to the use thereof” (TAISHO PHARMACEUTICAL CO., LTD., priority 2003, published 2005)

Tested on: MCH receptors
Test: MCH receptor activity class (method not given)
Details: class by percent of control at 10^-7 M or IC50

Row | Compound | class
1 | CN(C)c1nc(N[C@H]2CC[C@@H](NCc3cncc(-c4ccc(F)cc4)c3)CC2)nc2c1CCCC2 [compound 1356] | 3 (Class 3 The value of percent of control at 10^−7 M was more than 60% or the value of IC50 was more than 200 nM.)
2 | CCOC(=O)c1[nH]c2cc(Cl)cc(Cl)c2c1CN[C@H]1CC[C@@H](Nc2nc3c(c(N(C)C)n2)CCCC3)CC1 [compound 1357] | 1 (Class 1: The value of percent of control at 10^−7 M was less than 40% or the value of IC50 was less than 50 nM.)
3 | COC(=O)c1ccccc1Sc1nc2sccn2c1CN[C@H]1CC[C@@H](Nc2nc3c(c(N(C)C)n2)CCCC3)CC1 [compound 1358] | 3 (Class 3 The value of percent of control at 10^−7 M was more than 60% or the value of IC50 was more than 200 nM.)
4 | CN(C)c1nc(N[C@H]2CC[C@@H](NCc3c[nH]nc3-c3ccc(F)cc3)CC2)nc2c1CCCC2 [compound 1359] | 1 (Class 1: The value of percent of control at 10^−7 M was less than 40% or the value of IC50 was less than 50 nM.)
5 | CSc1ccc(CN[C@H]2CC[C@@H](Nc3nc4c(c(N(C)C)n3)CCCC4)CC2)cc1 [compound 1360] | 3 (Class 3 The value of percent of control at 10^−7 M was more than 60% or the value of IC50 was more than 200 nM.)
6 | CN(C)c1nc(N[C@H]2CC[C@@H](NCc3cccc4ccccc34)CC2)nc2c1CCCC2 [compound 1361] | 3 (Class 3 The value of percent of control at 10^−7 M was more than 60% or the value of IC50 was more than 200 nM.)
7 | COc1cc(CN[C@H]2CC[C@@H](Nc3nc4c(c(N(C)C)n3)CCCC4)CC2)ccc1O [compound 1362] | 3 (Class 3 The value of percent of control at 10^−7 M was more than 60% or the value of IC50 was more than 200 nM.)
8 | CN(C)c1nc(N[C@H]2CC[C@@H](NCc3ccc(F)c(Cl)c3)CC2)nc2c1CCCC2 [compound 1363] | 3 (Class 3 The value of percent of control at 10^−7 M was more than 60% or the value of IC50 was more than 200 nM.)
9 | COc1cccc(OC)c1CNC[C@H]1CC[C@@H](Nc2nc3c(c(N(C)C)n2)CCCC3)CC1 [compound 1364] | 1 (Class 1: The value of percent of control at 10^−7 M was less than 40% or the value of IC50 was less than 50 nM.)
10 | CCOc1ccccc1CNC[C@H]1CC[C@@H](Nc2nc3c(c(N(C)C)n2)CCCC3)CC1 [compound 1365] | 2 (Class 2: The value of percent of control at 10^−7 M was from 40% to 60% or the value of IC′50 was from 50 nM to 200 nM.)
11 | CN(C)c1nc(N[C@H]2CC[C@@H](CNCc3c[nH]c4ccccc34)CC2)nc2c1CCCC2 [compound 1366] | 2 (Class 2: The value of percent of control at 10^−7 M was from 40% to 60% or the value of IC′50 was from 50 nM to 200 nM.)
12 | COc1ccc(OC)c(CNC[C@H]2CC[C@@H](Nc3nc4c(c(N(C)C)n3)CCCC4)CC2)c1 [compound 1367] | 2 (Class 2: The value of percent of control at 10^−7 M was from 40% to 60% or the value of IC′50 was from 50 nM to 200 nM.)
13 | COc1ccc(CNC[C@H]2CC[C@@H](Nc3nc4c(c(N(C)C)n3)CCCC4)CC2)c2ccccc12 [compound 1368] | 2 (Class 2: The value of percent of control at 10^−7 M was from 40% to 60% or the value of IC′50 was from 50 nM to 200 nM.)
14 | COc1ccc2[nH]cc(CNC[C@H]3CC[C@@H](Nc4nc5c(c(N(C)C)n4)CCCC5)CC3)c2c1 [compound 1369] | 1 (Class 1: The value of percent of control at 10^−7 M was less than 40% or the value of IC50 was less than 50 nM.)
15 | COc1ccc2ccccc2c1CNC[C@H]1CC[C@@H](Nc2nc3c(c(N(C)C)n2)CCCC3)CC1 [compound 1370] | 3 (Class 3 The value of percent of control at 10^−7 M was more than 60% or the value of IC50 was more than 200 nM.)
16 | COc1cc(Br)cc(CNC[C@H]2CC[C@@H](Nc3nc4c(c(N(C)C)n3)CCCC4)CC2)c1O [compound 1371] | 2 (Class 2: The value of percent of control at 10^−7 M was from 40% to 60% or the value of IC′50 was from 50 nM to 200 nM.)
17 | CN(C)c1nc(N[C@H]2CC[C@@H](CNCc3c[nH]c4ccc(Br)cc34)CC2)nc2c1CCCC2 [compound 1372] | 1 (Class 1: The value of percent of control at 10^−7 M was less than 40% or the value of IC50 was less than 50 nM.)
18 | COc1ccc(CNC[C@H]2CC[C@@H](Nc3nc4c(c(N(C)C)n3)CCCC4)CC2)c(OC)c1 [compound 1373] | 3 (Class 3 The value of percent of control at 10^−7 M was more than 60% or the value of IC50 was more than 200 nM.)
19 | COc1ccc(CNC[C@H]2CC[C@@H](Nc3nc4c(c(N(C)C)n3)CCCC4)CC2)c(OC)c1OC [compound 1374] | 3 (Class 3 The value of percent of control at 10^−7 M was more than 60% or the value of IC50 was more than 200 nM.)
20 | COc1cc(CNC[C@H]2CC[C@@H](Nc3nc4c(c(N(C)C)n3)CCCC4)CC2)cc(OC)c1O [compound 1375] | 3 (Class 3 The value of percent of control at 10^−7 M was more than 60% or the value of IC50 was more than 200 nM.)
21 | CCOc1cc(CNC[C@H]2CC[C@@H](Nc3nc4c(c(N(C)C)n3)CCCC4)CC2)ccc1OC [compound 1376] | 1 (Class 1: The value of percent of control at 10^−7 M was less than 40% or the value of IC50 was less than 50 nM.)
22 | CN(C)c1nc(N[C@H]2CC[C@@H](CNCc3c[nH]nc3-c3ccc(C(F)(F)F)cc3)CC2)nc2c1CCCC2 [compound 1377] | 2 (Class 2: The value of percent of control at 10^−7 M was from 40% to 60% or the value of IC′50 was from 50 nM to 200 nM.)

Row | Compound | class
23 | COc1cc(CNC[C@H]2CC[C@@H](Nc3nc4c(c(N(C)C)n3)CCCC4)CC2)cc(OC)c1OC [compound 1378] | 2 (Class 2: The value of percent of control at 10^−7 M was from 40% to 60% or the value of IC′50 was from 50 nM to 200 nM.)
24 | COc1cc(CNC[C@H]2CC[C@@H](Nc3nc4c(c(N(C)C)n3)CCCC4)CC2)cc(OC)c1 [compound 1380] | 2 (Class 2: The value of percent of control at 10^−7 M was from 40% to 60% or the value of IC′50 was from 50 nM to 200 nM.)
25 | COc1cc(CNC[C@H]2CC[C@@H](Nc3nc4c(c(N(C)C)n3)CCCC4)CC2)cc(I)c1O [compound 1381] | 1 (Class 1: The value of percent of control at 10^−7 M was less than 40% or the value of IC50 was less than 50 nM.)
26 | Cc1cc(CNC[C@H]2CC[C@@H](Nc3nc4c(c(N(C)C)n3)CCCC4)CC2)cc(C)c1O [compound 1382] | 2 (Class 2: The value of percent of control at 10^−7 M was from 40% to 60% or the value of IC′50 was from 50 nM to 200 nM.)
27 | COc1ccc(CNC[C@H]2CC[C@@H](Nc3nc4c(c(N(C)C)n3)CCCC4)CC2)cc1 [compound 1383] | 3 (Class 3 The value of percent of control at 10^−7 M was more than 60% or the value of IC50 was more than 200 nM.)
28 | CN(C)c1nc(N[C@H]2CC[C@@H](CNCc3ccc4c(c3)OCCO4)CC2)nc2c1CCCC2 [compound 1384] | 3 (Class 3 The value of percent of control at 10^−7 M was more than 60% or the value of IC50 was more than 200 nM.)
29 | CN(C)c1nc(N[C@H]2CC[C@@H](CNCc3cccc(Br)c3)CC2)nc2c1CCCC2 [compound 1385] | 3 (Class 3 The value of percent of control at 10^−7 M was more than 60% or the value of IC50 was more than 200 nM.)
30 | COc1cc(OC)c(CNC[C@H]2CC[C@@H](Nc3nc4c(c(N(C)C)n3)CCCC4)CC2)cc1Br [compound 1386] | 3 (Class 3 The value of percent of control at 10^−7 M was more than 60% or the value of IC50 was more than 200 nM.)
31 | COc1ccc(Br)cc1CNC[C@H]1CC[C@@H](Nc2nc3c(c(N(C)C)n2)CCCC3)CC1 [compound 1387] | 3 (Class 3 The value of percent of control at 10^−7 M was more than 60% or the value of IC50 was more than 200 nM.)
32 | CN(C)c1nc(N[C@H]2CC[C@@H](CNCc3ccc(O)cc3Cl)CC2)nc2c1CCCC2 [compound 1388] | 2 (Class 2: The value of percent of control at 10^−7 M was from 40% to 60% or the value of IC′50 was from 50 nM to 200 nM.)
33 | CN(C)c1nc(N[C@H]2CC[C@@H](CNCc3ccccc3C#N)CC2)nc2c1CCCC2 [compound 1389] | 3 (Class 3 The value of percent of control at 10^−7 M was more than 60% or the value of IC50 was more than 200 nM.)
34 | CN(C)c1nc(N[C@H]2CC[C@@H](CNCc3cccc(Cl)c3)CC2)nc2c1CCCC2 [compound 1390] | 3 (Class 3 The value of percent of control at 10^−7 M was more than 60% or the value of IC50 was more than 200 nM.)
35 | CN(C)c1nc(N[C@H]2CC[C@@H](CNCc3ccc(Cl)cc3)CC2)nc2c1CCCC2 [compound 1391] | 3 (Class 3 The value of percent of control at 10^−7 M was more than 60% or the value of IC50 was more than 200 nM.)
36 | CCN(CC)c1ccc(CNC[C@H]2CC[C@@H](Nc3nc4c(c(N(C)C)n3)CCCC4)CC2)cc1 [compound 1392] | 2 (Class 2: The value of percent of control at 10^−7 M was from 40% to 60% or the value of IC′50 was from 50 nM to 200 nM.)
37 | CN(C)c1ccc(CNC[C@H]2CC[C@@H](Nc3nc4c(c(N(C)C)n3)CCCC4)CC2)cc1 [compound 1393] | 3 (Class 3 The value of percent of control at 10^−7 M was more than 60% or the value of IC50 was more than 200 nM.)
38 | CCn1c2ccccc2c2cc(CNC[C@H]3CC[C@@H](Nc4nc5c(c(N(C)C)n4)CCCC5)CC3)ccc21 [compound 1394] | 3 (Class 3 The value of percent of control at 10^−7 M was more than 60% or the value of IC50 was more than 200 nM.)
39 | CN(C)c1nc(N[C@H]2CC[C@@H](CNCc3cc(C(F)(F)F)ccc3F)CC2)nc2c1CCCC2 [compound 1395] | 3 (Class 3 The value of percent of control at 10^−7 M was more than 60% or the value of IC50 was more than 200 nM.)
40 | CN(C)c1nc(N[C@H]2CC[C@@H](CNCc3ccc(O)cc3)CC2)nc2c1CCCC2 [compound 1396] | 3 (Class 3 The value of percent of control at 10^−7 M was more than 60% or the value of IC50 was more than 200 nM.)
41 | CN(C)c1nc(N[C@H]2CC[C@@H](CNCc3ccc(CO)o3)CC2)nc2c1CCCC2 [compound 1397] | 3 (Class 3 The value of percent of control at 10^−7 M was more than 60% or the value of IC50 was more than 200 nM.)
42 | CC(C)Oc1ccc(CNC[C@H]2CC[C@@H](Nc3nc4c(c(N(C)C)n3)CCCC4)CC2)cc1 [compound 1398] | 3 (Class 3 The value of percent of control at 10^−7 M was more than 60% or the value of IC50 was more than 200 nM.)
43 | CCc1ccc(CNC[C@H]2CC[C@@H](Nc3nc4c(c(N(C)C)n3)CCCC4)CC2)s1 [compound 1399] | 3 (Class 3 The value of percent of control at 10^−7 M was more than 60% or the value of IC50 was more than 200 nM.)
